Data taken from ChEMBL document CHEMBL5365419, “Identification of a Protein Arginine Methyltransferase 7 (PRMT7)/Protein Arginine Methyltransferase 9 (PRMT9) Inhibitor” (J Med Chem, 2023).
Active and inactive are the calls of the source.

Assays:
[1] = molecular target: Histone-lysine N-methyltransferase EZH2 (Homo sapiens) (UniProt Q15910); experiment: Inhibition of N-terminal His-tagged human full-length recombinant EZH2 (2 to 746 residues) in PRC2 complex at higher concentration using core histone as substrate and 3H-SAM as cosubstrate incubated for 60 mins by scintillation counter analysis
Sequence of Histone-lysine N-methyltransferase EZH2 (Homo sapiens) (Q15910 whole entry, looked up, the tested form may be a part): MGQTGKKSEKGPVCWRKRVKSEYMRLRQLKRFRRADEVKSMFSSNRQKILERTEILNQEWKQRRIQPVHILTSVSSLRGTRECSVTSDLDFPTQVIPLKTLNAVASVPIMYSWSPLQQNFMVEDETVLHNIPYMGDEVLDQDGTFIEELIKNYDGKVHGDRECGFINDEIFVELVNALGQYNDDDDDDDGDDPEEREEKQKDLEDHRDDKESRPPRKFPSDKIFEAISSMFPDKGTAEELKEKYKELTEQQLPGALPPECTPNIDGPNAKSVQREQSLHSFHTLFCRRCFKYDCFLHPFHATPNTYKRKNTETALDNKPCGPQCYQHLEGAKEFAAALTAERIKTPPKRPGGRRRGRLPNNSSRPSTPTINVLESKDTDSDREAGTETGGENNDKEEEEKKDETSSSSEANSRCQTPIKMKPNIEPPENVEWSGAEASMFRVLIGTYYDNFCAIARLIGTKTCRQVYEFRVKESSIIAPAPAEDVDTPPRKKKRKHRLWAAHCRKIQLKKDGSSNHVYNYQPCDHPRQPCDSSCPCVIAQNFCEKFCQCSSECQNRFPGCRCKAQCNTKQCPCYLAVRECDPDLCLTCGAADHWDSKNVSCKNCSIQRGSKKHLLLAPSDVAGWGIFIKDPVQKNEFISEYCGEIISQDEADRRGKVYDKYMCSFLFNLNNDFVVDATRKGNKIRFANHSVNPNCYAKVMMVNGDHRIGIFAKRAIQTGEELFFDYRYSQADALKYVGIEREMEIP

[2] = molecular target: T1, Histone-lysine N-methyltransferase EHMT2 (Homo sapiens) (UniProt Q96KQ7); experiment: Inhibition of N-terminal/C-terminal His-tagged human recombinant G9a (913 to 1193 residues) at higher concentration using histone H3 (1 to 21 residues) as substrate and 3H-SAM as cosubstrate incubated for 60 mins by scintillation counter analysis
T1 sequence (whole entry): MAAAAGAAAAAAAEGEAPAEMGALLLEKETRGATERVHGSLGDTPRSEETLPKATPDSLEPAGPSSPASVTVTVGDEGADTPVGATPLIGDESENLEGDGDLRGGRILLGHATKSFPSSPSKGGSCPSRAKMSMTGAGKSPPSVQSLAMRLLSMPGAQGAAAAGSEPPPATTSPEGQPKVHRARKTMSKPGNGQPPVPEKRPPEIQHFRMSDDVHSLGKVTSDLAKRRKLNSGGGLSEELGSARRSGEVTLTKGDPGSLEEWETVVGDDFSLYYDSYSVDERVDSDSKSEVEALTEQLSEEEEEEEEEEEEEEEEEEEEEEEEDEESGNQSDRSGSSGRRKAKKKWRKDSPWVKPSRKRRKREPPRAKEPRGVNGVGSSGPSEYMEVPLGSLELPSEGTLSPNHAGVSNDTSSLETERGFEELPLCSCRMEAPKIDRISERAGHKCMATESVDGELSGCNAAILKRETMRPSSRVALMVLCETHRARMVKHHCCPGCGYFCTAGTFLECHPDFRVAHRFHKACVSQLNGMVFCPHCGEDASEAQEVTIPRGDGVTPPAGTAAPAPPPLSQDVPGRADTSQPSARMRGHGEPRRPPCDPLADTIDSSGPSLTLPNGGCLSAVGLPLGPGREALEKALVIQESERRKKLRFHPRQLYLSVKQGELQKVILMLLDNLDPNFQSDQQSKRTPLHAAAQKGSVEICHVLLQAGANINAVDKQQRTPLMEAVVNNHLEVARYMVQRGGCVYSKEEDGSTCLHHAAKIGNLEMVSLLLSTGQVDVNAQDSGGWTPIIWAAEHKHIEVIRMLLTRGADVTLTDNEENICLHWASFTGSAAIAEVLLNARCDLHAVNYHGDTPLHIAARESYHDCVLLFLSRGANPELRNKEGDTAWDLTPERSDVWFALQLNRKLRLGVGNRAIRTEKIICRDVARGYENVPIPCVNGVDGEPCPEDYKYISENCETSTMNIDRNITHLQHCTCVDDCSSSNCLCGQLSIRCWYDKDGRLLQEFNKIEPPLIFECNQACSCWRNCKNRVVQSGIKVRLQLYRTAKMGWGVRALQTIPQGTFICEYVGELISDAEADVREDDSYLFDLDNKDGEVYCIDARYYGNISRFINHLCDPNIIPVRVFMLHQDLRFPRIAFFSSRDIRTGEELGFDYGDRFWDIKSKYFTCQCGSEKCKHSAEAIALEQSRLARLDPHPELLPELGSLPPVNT

Homo sapiens = species: Homo sapiens; experiment: Inhibition of N-terminal/C-terminal His-tagged human recombinant MLL1 (3745 to 3969 residues)/WDR5 (22 to 334 residues)/RbBP5 (1 to 538 residues)/ASH2L (2 to 534 residues)/DPY-30 (1 to 99 residues) complex at higher concentration using oligo nucleosomes as substrate and 3H-SAM as cosubstrate incubated for 60 mins by scintillation counter analysis
[3] = molecular target: Histone-lysine N-methyltransferase SUV39H2 (Homo sapiens) (UniProt Q9H5I1); experiment: Inhibition of N-terminal/C-terminal His/GST-tagged human recombinant SUV39H2 (46 to 410 residues) at higher concentration using H3 histone as substrate and 3H-SAM as cosubstrate incubated for 60 mins by scintillation counter analysis
Sequence of Histone-lysine N-methyltransferase SUV39H2 (Homo sapiens) (Q9H5I1 whole entry, the tested form may be a part): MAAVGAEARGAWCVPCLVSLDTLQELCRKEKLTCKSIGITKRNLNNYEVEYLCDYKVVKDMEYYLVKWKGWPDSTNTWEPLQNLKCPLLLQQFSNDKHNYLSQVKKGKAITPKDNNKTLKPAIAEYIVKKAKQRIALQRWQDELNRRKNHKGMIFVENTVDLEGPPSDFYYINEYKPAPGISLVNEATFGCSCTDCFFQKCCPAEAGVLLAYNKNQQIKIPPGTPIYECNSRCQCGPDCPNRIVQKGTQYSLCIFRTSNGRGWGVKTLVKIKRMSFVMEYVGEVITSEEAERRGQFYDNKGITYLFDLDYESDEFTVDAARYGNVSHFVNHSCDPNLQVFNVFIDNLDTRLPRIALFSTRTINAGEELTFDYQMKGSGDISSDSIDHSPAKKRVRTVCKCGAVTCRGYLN

Measured: inhibition

COC(=O)c1cc(O)c2cc(NC(=O)NCCCNC(=N)NC[C@H]3O[C@@H](n4cnc5c(N)ncnc54)[C@H](O)[C@@H]3O)cc(C(F)(F)F)c2c1
inactive: [1] | [2] | Homo sapiens | [3]
